Measurements taken from patent US20240245677A1, “SELECTED COMPOUNDS FOR TARGETED DEGRADATION OF BRD9” (C4 THERAPEUTICS, INC., priority 2021, published 2024).
Values after ≈ are worked out from the molar mass of the structure shown.

Columns and labels:
[1] = Human Hepatocyte Stability Assay; type: in vitro ADME; conditions: cryopreserved hepatocytes
Description: (§1) The metabolic stability of Compound 1 was evaluated using cryopreserved hepatocytes from mice, rats, dogs, cynomolgus monkeys, and humans.
(§2) 50 μL of 1 mM intermediate solutions for each test compound was prepared by adding 5 μL of 10 mM stock solution to 45 μL of a 1:1 mixture of water and acetonitrile. A 2 μM working stocks for each test compound were prepared in incubation media, InvitroGRO™ KHB (Bio IVT, Westbury, NY, USA), by adding 2 μL of 1 mM intermediate stock to 998 μL of incubation media.
(§3) To thaw the hepatocytes, InvitroGRO™ HT thawing medium (BioIVT, Westbury, NY, USA) was prewarmed to 37° C., and 48 mL of warmed thawing medium was transferred to a sterile 50 mL conical tube. The hepatocyte vial was removed from the liquid nitrogen Dewar, and gently thawed in a water bath at 37° C. for 1-2 minutes, then the contents of the vial were emptied into a conical tube with prewarmed InvitroGRO HT medium. 1 mL of prewarmed InvitroGRO HT medium was added to each emptied hepatocyte vial to resuspend any remaining cells, and the contents were pipetted into the hepatocyte suspension. The tube containing the hepatocyte suspension was centrifuged at 50*g for 5 minutes. The supernatant was removed carefully, and the remaining pellet was resuspended by adding 1 mL of incubation media, InvitroGRO KHB, and gently shaking until there were no clumps.
(§4) Cell viability was determined using the trypan blue method. 25 μL of hepatocyte cell suspension was added to a trypan blue (TB) solution (containing 775 μL InvitroGRO KHB and 200 μL of Trypan Blue). Cell count was taken using a hemacytometer.
(§5) For mouse hepatocytes, 200 μL of hepatocytes (0.8×10^6 cells/mL) were added to the wells of a 48 well plate (Catalog No. 92048, TPP Techno Plastic Products AG, Trasadingen, Switzerland) and pre-incubated for 30 minutes at 37° C. For rat, dog, monkey, […], 200 μL of hepatocytes (2×10^6 cells/mL) were added to the wells of a 48 well plate (Catalog No. 92048, TPP Techno Plastic Products AG, Trasadingen, Switzerland) and pre-incubated for 30 minutes at 37° C.
(§6) For all species of hepatocytes, once the pre-incubation period was complete, 200 μL of 2 μM working stock of test compound was added to the wells of the plate, and the plate was vortexed on a Vibramax™ 100 (P/N 544-21200-00, Heidolph Instruments GmbH & Co. KG, Schwabach, Germany) at 500 rpm in a 37° C. CO2 incubator (Model No. 51026280, ThermoFisher Scientific, Waltham, MA, USA). At each time point of 0, 15, 30, 60, 90, and 120 minutes, 50 μL of incubation mixture was precipitated with 200 μL of acetonitrile containing internal standard.
(§7) At the end of the experiment, the samples were centrifuged at 4000 rpm for 10 minutes. […]

[2] = test system: cryopreserved human hepatocytes; test: Human Hepatocyte Stability Assay; type: in vitro ADME
Description: as §1, §2, §3, §4, §5, §6, §7

[3] = Crystallization from hot saturated solutions by slow cooling; type: physicochemical; conditions: for Comments / XRPD: hot saturated solution
Description: Samples with no precipitates were put in −20° C. freezer for crystallization. Precipitates were collected by centrifuged. Solid parts (wet cakes) were investigated by XRPD.

[4] = Approximate solubility in solvents at 25° C. and 50° C. (visual observation); type: physicochemical; conditions: thermodynamic from solid, 25° C., target conc. = 250 mg/mL
Description: Max. volume of each solvent added was 1 mL. Approximate solubility was determined by visual observation.
Max volume of each solvent added was 1 mL. Approximate solubility was determined by visual observation.

G402 tumor xenografts = test: Antitumor activity in G402 malignant rhabdoid tumor xenograft model; type: in vivo, mouse; conditions: for TGI: day 21
Description: To evaluate the efficacy potential of Compound 1 in the malignant rhabdoid tumor setting, BALB/c nude female mice bearing G402 tumor xenografts (WuXi AppTec, Shanghai, China) were treated with a daily regimen of escalating doses of Compound 1 (10 mg/kg, 30 mg/kg, or 50 mg/kg) or vehicle via oral gavage for 21 days (FIG. 3). Compound 1 was tolerated in this study with all mice except two losing no greater than 8% body weight (FIG. 4). […] One mouse in the 50 mg/kg QD group also experienced accumulating body weight loss to end the study at −17.3% but was never taken off study. […] TGI and One-way ANOVA analyses were performed on day 21, the last day all animals were on study.
The G402 tumor cells were maintained in vitro in McCoy's 5a medium supplemented with 10% fetal bovine serum and 1% Penicillin-Streptomycin at 37° C. in an atmosphere of 5% CO2 in air. The tumor cells were routinely subcultured twice weekly. The cells growing in an exponential growth phase were harvested and counted for tumor inoculation.
Each mouse was inoculated subcutaneously at the right flank with G402 cells (10×10^6) in 0.2 mL of PBS supplemented with Matrigel (PBS:Matrigel=1:1) for tumor development. For efficacy part, the treatments were started when the average tumor volume reaches 175 mm^3.

Q: Which half-life at 1 µM [1] does the source give for `COc1cc(-c2cn(C)c(=O)c(C)c2C)cc(OC)c1CN1CC[C@H](N2CCN(c3ccc(N[C@H]4CCC(=O)NC4=O)cc3F)CC2)C(F)(F)C1` [Compound 1, (S)-3-((4-(4-((S)-1-(2,6-dimethoxy-4-(1,4,5-trimethyl-6-oxo-1,6-dihydropyridin-3-yl)benzyl)-3,3-difluoropiperidin-4-yl)piperazin-1-yl)-3-fluorophenyl)amino)-piperidine-2,6-dione] here?
A: > 2 h

Q: What about the hepatocyte CLint at 1 µM ([1]; read-out: CL int cells) of the same compound?
A: 4.67 µL/min/1e6 cells

Q: What about the CLint scaled at 1 µM ([1]; read-out: CL int in vivo) of the same compound?
A: 14.4 mL/min/kg

Q: And the “CLhb scaled well stirred” value [2]?
A: 8.4 mL/min/kg body wt.

Q: And the “Comments: form after seeding” value ([3]; 2-MeTHF, add Pattern G as seeds, slurry for 5 days)?
A: Pattern G

Q: And the Comments ([3]; 2-MeTHF)?
A: Clear solution

Q: What about the XRPD ([3]; Acetone) of the same compound?
A: Pattern B

Q: What about the XRPD ([3]; Ethanol) of the same compound?
A: Pattern F

Q: What about the Comments ([3]; Ethyl acetate) of the same compound?
A: Clear solution

Q: And the Comments ([3]; Methanol)?
A: Clear solution

Q: And the Solubility ([4]; organic solvent or mixture, Acetone)?
A: 17000 to 25000 µg/mL (≈ 23.9 to 35.2 mM)

Q: And the Solubility ([4]; organic solvent or mixture, Acetonitrile)?
A: 6000 to 7000 µg/mL (≈ 8.44 to 9.85 mM)

Q: And the Solubility ([4]; organic solvent or mixture, Ethanol)?
A: 5000 to 6000 µg/mL (≈ 7.03 to 8.44 mM)

Q: And the Solubility ([4]; organic solvent or mixture, Ethyl acetate)?
A: 5000 to 6000 µg/mL (≈ 7.03 to 8.44 mM)

Q: And the Solubility ([4]; organic solvent or mixture, Heptane)?
A: < 5000 µg/mL

Q: And the Solubility ([4]; organic solvent or mixture, MTBE (Methyl tert-butyl ether))?
A: < 5000 µg/mL

Q: And the Solubility ([4]; organic solvent or mixture, Methanol)?
A: 10000 to 17000 µg/mL (≈ 14.1 to 23.9 mM)

Q: What about the Solubility ([4]; organic solvent or mixture, Methanol/water (v:v = 95:5)) of the same compound?
A: 8000 to 13000 µg/mL (≈ 11.3 to 18.3 mM)

Q: And the Solubility ([4]; organic solvent or mixture, THF (Tetrahydrofuran))?
A: > 250000 µg/mL

Q: What about the Solubility ([4]; Water) of the same compound?
A: < 5000 µg/mL

Q: And the “body weight loss, one mouse” value (G402 tumor xenografts; 10 mg/kg QD group)?
A: over 15%

Q: What about the TGI (G402 tumor xenografts; 30 mg/kg/day oral) of the same compound?
A: 73%

Q: What about the “body weight change at end of study, one mouse” value (G402 tumor xenografts; 50 mg/kg QD group) of the same compound?
A: −17.3%

Q: And the TGI (G402 tumor xenografts; 50 mg/kg/day oral)?
A: 78%

Q: What about the “body weight loss, all mice except two” value (G402 tumor xenografts; 10, 30 or 50 mg/kg daily for 21 days) of the same compound?
A: ≤ 8%
